Values quoted from earlier work in US20070281927A1, “Anti-inflammatory and analgesic compositions and related methods” (priority 2006, published 2007).

Key:
[1] = not given; remark: listed apart in the source

time to maximum plasma concentration (after oral administration, many individuals): ≥ 5 h | time of second meloxicam concentration peak (post-dose, suggests gastrointestinal recirculation): twelve to fourteen | bioavailability (single 30 mg oral dose compared to 30 mg intravenous bolus injection): 89% | solubility in acidic or neutral mediums ([1]; acidic or neutral mediums): low solubility | solubility at the acidic pH range of the upper gastrointestinal tract ([1]; acidic pH range of the upper gastrointestinal tract): poorly soluble | solubility in water ([1]; water): practically insoluble
SMILES: Cc1cnc(NC(=O)C2=C(O)c3ccccc3S(=O)(=O)N2C)s1 [Meloxicam, 4-hydroxy-2-methyl-N-(5-methyl-2-thiazolyl-)-2H-1,2-benzothiazine-3-carboxamide 1,1-dioxide]
